How the values were obtained:
SARS-CoV-2 = SARS-CoV-2 proliferation suppression study (nucleocapsid Western blot in VeroE6/TMPRSS2 cells); type: cell-based; details: for inhibition at 20 µM: Severe acute respiratory syndrome coronavirus 2, 20 μM, MOI 10, lysate 8 hours after infection, read-out: Inhibition rate (SARS-CoV-2 nucleocapsid band area)
Pin1 [1] = biological target: T1, Pin1 (Homo sapiens, UniProt Q13526); assay: Cell-based assay of Pin1 inhibition (AMPK phosphorylation level as index, Western blot); parameters: endogenous in cells; host or cells: 293T cells; key: +++: a higher level of AMPK phosphorylation is promoted, as compared with C1; ++: a similar level of AMPK phosphorylation is promoted, as compared with C1; +: a lower level of AMPK phosphorylation is promoted, as compared with C1; −: no or almost no promotion is found in AMPK phosphorylation; details: 293T cells, compound at 50 μM, 10 mM 2-DG, pAMPK level compared with known Pin1 inhibitor C1
T1 sequence (Q13526 whole entry): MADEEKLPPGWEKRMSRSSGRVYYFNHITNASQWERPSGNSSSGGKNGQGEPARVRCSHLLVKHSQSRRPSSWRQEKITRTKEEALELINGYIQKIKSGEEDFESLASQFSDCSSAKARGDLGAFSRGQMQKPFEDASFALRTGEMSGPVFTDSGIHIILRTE
Method: To evaluate the inhibitory activity of each compound synthesized in Example 1 against the function of Pin1, a cell-based assay was performed according to the method previously developed by the inventors (Yusuke Nakatsu et al., Journal of Biological Chemistry, 2015, Vol. 290, No. 40, pp. 24255-24266), in which the phosphorylation level of AMPK (AMP-activated protein kinase), a protein whose phosphorylation is suppressed by Pin1, was examined as an index.
Briefly, 293T cells were plated on a collagen-coated 24-well plate. Forty-eight hours later, each compound synthesized in the preceding example (at 50 μM) was added to the plate, and the plate was left to stand in an incubator for 30 minutes. Subsequently, 10 mM 2-DG was added to the plate, and one hour later, each sample was collected with a buffer containing mercaptoethanol and SDS.
SDS-PAGE and blotting were performed, and blocking was then performed with 3% BSA for 1 hour, according to conventional protocols. Subsequently, a pAMPK antibody (Cell Signaling; diluted 1:2000 in Can Get Signal Solution 1, Toyobo) as a primary antibody, and an HRP-linked anti rabbit IgG (GE Healthcare; diluted 1:4000 in Can Get Signal Solution 2, Toyobo) as a secondary antibody were allowed to react at ambient temperature for 1 hour prior to detection.
The inhibitory activity against the function of Pin1 was evaluated as indicated below by comparing the inhibition levels between each compound and a known Pin1 inhibitor, C1 ((R)-2-(5-(4-methoxyphenyl)-2-methylfuran-3-carboxamido)-3-(naphthalene-6-yl) propanoic acid):
(+++): a higher level of AMPK phosphorylation is promoted, as compared with C1;
(++): a similar level of AMPK phosphorylation is promoted, as compared with C1;
(+): a lower level of AMPK phosphorylation is promoted, as compared with C1;
(−): no or almost no promotion is found in AMPK phosphorylation.

NASH-induced mice = details: cited from earlier work
Pin1 [2] = biological target: T1, Pin1; assay: Cell-free assay of peptidylprolyl isomerase activity (absorbance at 330 nm, substrate Suc-Ala-Glu-Pro-Phe-pNA); type: biochemical; details: compound 10 μM, Pin1 5 nM, substrate peptide 60 μM, 10° C.; read-out: Pin1 inhibition activity Cell-free assay (inhibition ratio)
Method: For some compounds synthesized in Example 1, the inhibitory activity against the function of Pin1 was measured by a cell-free assay based on the method by Janowski et al. (AnalyticalBiochemistry, 1997, Vol. 252, Issue 2, pp. 299-307) because there is an assay measuring peptidylprolylisomerase activity without cells (cell-free).
Briefly, an assay buffer (containing 35 mM HEPES, pH 7.8, 50 μM DTT and 0.0025% NP40) was equilibrated to 10° C. in a quartz cell with stirring function. To this solution was added the compound dissolved in DMSO (10 μM) and then UV spectrum of the resulting solution was immediately measured. Then Pin1 (final concentration of 5 nM) was added to the solution. The reaction was initiated by adding a substrate peptide (Suc-Ala-Glu-Pro-Phe-pNA) dissolved in 0.5 M LiCl solution in trifluoroethanol (final concentration of 60 μM). After reaction was initiated, the change of absorbance at 330 nm was measured for 5 minutes. The resultant reaction curve was fitted to a first order decay model to calculate the reaction rate. The catalytic reaction rate was calculated by subtracting the background rate from the reaction rate. The inhibition ratio (%) was calculated from the catalytic reaction rates in the presence and absence of the compound. The higher inhibition ratio means the higher inhibitory activity against Pin1 function.

[3] = tested on: non-alcoholic steatohepatitis (NASH) model mice; assay: NASH treatment study in HFD-fed NASH model mice; type: in vivo; details: 5 mg/kg/day orally three times a week, 8 weeks
Method: Animal experiments were performed using non-alcoholic steatohepatitis (NASH) model mice to test the compounds according to the present invention for the therapeutic effect on NASH. NASH model mice (hereinafter referred to as “NASH mice”) were produced by feeding a high-fat and high-cholesterol diet containing palm oil (HFD) to individual 8-week-old male laboratory mice for 8 weeks. The mice were divided into groups during 8 weeks of the HFD-feeding period, and animal experiments were performed on a group of mice to which a compound according to the present invention (H-686) was administered orally at a dose of 5 mg/kg/day three times a week, and a group of mice to which nothing was administered. In addition, a normal diet was given to individual 8-week-old male laboratory mice for 8 weeks to prepare control mice. FIGS. 1 (A) and 1 (B) show the results of measurements of body weight and liver weight of these mice respectively. FIGS. 2 (A) and 2 (B) show the results of measurements of blood AST (GOT) concentration and blood ALT (GPT) concentration. respectively. Then FIGS. 3 (A) and 3 (B) show the results of measurements of mRNA expression levels of Colla1 (collagen, type I, alpha 1 chain) and Colla2 (collagen, type I, alpha 2 chain), respectively.

## COC(=O)c1cc(NC(=O)c2cccnc2)cc(NC(=O)n2c3ccccc3c3ccccc32)c1 [Compound H-680]
SARS-CoV-2
  inhibition at 20 µM: 53%
Pin1 [1]
  Pin1 inhibition activity Cell-based assay: − (Hydrolysis causes conversion to H-682)

## O=C(O)c1cc(NC(=O)c2ccc3ccccc3n2)cc(NC(=O)n2c3ccccc3c3ccccc32)c1 [Compound H-688]
SARS-CoV-2; 5 μM or 10 μM, MOI 10, 8 hours after infection, FIG. 5
  suppressing effect against SARS-CoV-2 proliferation: observed to have a suppressing effect against SARS-CoV-2 proliferation
SARS-CoV-2
  inhibition at 20 µM: 98%
Pin1 [1]
  Pin1 inhibition activity Cell-based assay: ++

## O=C1C=CC(=O)c2c(O)cccc21 [Juglone]
NASH-induced mice
  development of NASH: ameliorates the development of NASH

## COC(=O)c1cc(NC(=O)c2cnc3ccccc3n2)cc(NC(=O)n2c3ccccc3c3ccccc32)c1 [Compound H-685]
SARS-CoV-2
  inhibition at 20 µM: 58%
Pin1 [1]
  Pin1 inhibition activity Cell-based assay: +

## O=C(COc1ccccn1)Nc1cc(NC(=O)n2c3ccccc3c3ccccc32)cc(C(=O)O)c1 [Compound H-763]
SARS-CoV-2
  inhibition at 20 µM: 97%
Pin1 [1]
  Pin1 inhibition activity Cell-based assay: −
Pin1 [2]
  inhibition at 10 µM: 24.6%

## COC(=O)c1cc(NC(=O)COc2ccccn2)cc(NC(=O)n2c3ccccc3c3ccccc32)c1 [Compound H-762]
SARS-CoV-2
  inhibition at 20 µM: 83%
Pin1 [1]
  Pin1 inhibition activity Cell-based assay: − (Hydrolysis causes conversion to H-763)

## O=C(CN(c1ccccc1)c1ccccc1)Nc1cc(NC(=O)c2ccc3ccccc3n2)cc(C(=O)O)c1 [Compound H-821]
SARS-CoV-2
  inhibition at 20 µM: 95%
Pin1 [2]
  inhibition at 10 µM: 94.4%

## COC(=O)c1cc(NC(=O)c2ccc3c(c2)OCCO3)cc(NC(=O)n2c3ccccc3c3ccccc32)c1 [Compound H-686]
Pin1 [1]
  Pin1 inhibition activity Cell-based assay: ++ (Hydrolysis causes conversion to H-692)
[3]; FIG. 1 (A)
  body weight (weight gain): weight gain in the mice given H-686 was suppressed
[3]; FIG. 1 (B)
  liver weight (increase): the increase in liver weight was significantly suppressed
[3]; FIG. 2 (A)
  blood AST (GOT) concentration: the AST value was decreased
[3]; FIG. 2 (B)
  blood ALT (GPT) concentration: the ALT value was decreased
[3]; FIG. 3 (A)
  mRNA expression level of Colla1 (collagen, type I, alpha 1 chain): the expression level of Colla1 was suppressed
[3]; FIG. 3 (B)
  mRNA expression level of Colla2 (collagen, type I, alpha 2 chain): the suppression of the expression level was observed
[3]; FIG. 4
  fat accumulation in liver tissue (microscopic observation): suppressed fat accumulation

## O=C(COc1ccc2ccccc2n1)Nc1cc(NC(=O)n2c3ccccc3c3ccccc32)cc(C(=O)O)c1 [Compound H-765]
Pin1 [1]
  Pin1 inhibition activity Cell-based assay: −
Pin1 [2]
  inhibition at 10 µM: 42.8%

## O=C(O)c1cc(NC(=O)c2ccc3c(c2)OCCO3)cc(NC(=O)n2c3ccccc3c3ccccc32)c1 [Compound H-692]
Pin1 [1]
  Pin1 inhibition activity Cell-based assay: +++
Pin1 [2]
  inhibition at 10 µM: 80 to 94%

## O=C(CN(c1ccccc1)c1ccccc1)Nc1cc(NC(=O)c2ccc3ccccc3c2)cc(C(=O)O)c1 [Compound H-819]
SARS-CoV-2
  inhibition at 20 µM: 95%
Pin1 [2]
  inhibition at 10 µM: 62%

## COC(=O)c1cc(NC(=O)c2ccc3ccccc3n2)cc(NC(=O)n2c3ccccc3c3ccccc32)c1 [Compound H-684]
SARS-CoV-2
  inhibition at 20 µM: 66%
Pin1 [1]
  Pin1 inhibition activity Cell-based assay: ++ (Hydrolysis causes conversion to H-688)
